Source: patent publication US11524968B2, “Heterocyclic compound as a protein kinase inhibitor” (HK inno.N Corporation, priority 2017, dated 2022)

Biological target: JAK1 (Homo sapiens (Human), UniProt P23458)
Test: Analysis of JAK1 activity inhibition ability (ADP-Glo Kinase Assay)
Assay type: biochemical
Conditions: JAK1 enzyme, ADP-Glo luminescence, ATP 250 uM, IRS-itide substrate, 30° C. 40 minutes; read-out: IC50
In short: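 ADP-Glo luminescence read-out of ADP production, with IC50 taken as the concentration halving JAK1 activity relative to control. Enzyme was incubated 40 min at 30 °C with compound, IRS-itide (40 ng/mL) and ATP (250 uM), concentrations as prepared in pH 7.5 Tris-HCl/MgCl2/BSA/DTT buffer.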

Sequence of JAK1 (P23458 whole entry): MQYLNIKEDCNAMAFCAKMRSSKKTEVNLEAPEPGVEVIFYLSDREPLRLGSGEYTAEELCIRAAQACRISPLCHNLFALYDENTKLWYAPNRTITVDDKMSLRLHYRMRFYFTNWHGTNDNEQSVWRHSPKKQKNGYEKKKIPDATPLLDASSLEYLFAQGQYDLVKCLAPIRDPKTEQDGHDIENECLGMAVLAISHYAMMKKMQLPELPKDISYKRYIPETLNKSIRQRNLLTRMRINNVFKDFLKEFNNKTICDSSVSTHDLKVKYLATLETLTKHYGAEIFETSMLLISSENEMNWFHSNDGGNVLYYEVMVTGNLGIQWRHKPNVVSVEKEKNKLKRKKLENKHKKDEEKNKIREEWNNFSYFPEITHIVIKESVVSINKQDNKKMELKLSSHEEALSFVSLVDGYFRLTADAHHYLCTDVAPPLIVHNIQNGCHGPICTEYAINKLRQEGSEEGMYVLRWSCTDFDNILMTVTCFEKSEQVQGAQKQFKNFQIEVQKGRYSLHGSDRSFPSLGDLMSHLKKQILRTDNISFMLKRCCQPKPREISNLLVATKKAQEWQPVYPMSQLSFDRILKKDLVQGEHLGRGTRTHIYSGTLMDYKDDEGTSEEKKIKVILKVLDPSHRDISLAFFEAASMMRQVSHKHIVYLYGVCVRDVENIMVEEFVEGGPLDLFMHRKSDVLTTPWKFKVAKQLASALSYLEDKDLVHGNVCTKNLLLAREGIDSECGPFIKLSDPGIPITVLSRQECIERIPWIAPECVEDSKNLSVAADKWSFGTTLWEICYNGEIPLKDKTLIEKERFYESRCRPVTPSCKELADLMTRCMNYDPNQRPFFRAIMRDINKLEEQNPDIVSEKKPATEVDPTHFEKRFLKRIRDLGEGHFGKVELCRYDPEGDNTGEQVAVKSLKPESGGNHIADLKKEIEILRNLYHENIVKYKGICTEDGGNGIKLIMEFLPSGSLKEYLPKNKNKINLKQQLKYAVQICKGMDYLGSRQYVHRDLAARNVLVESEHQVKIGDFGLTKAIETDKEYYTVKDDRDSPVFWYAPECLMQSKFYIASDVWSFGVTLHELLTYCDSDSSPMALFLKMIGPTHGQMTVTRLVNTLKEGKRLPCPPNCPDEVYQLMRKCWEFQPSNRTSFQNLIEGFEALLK

| SMILES | IC50 |
| --- | --- |
| N#CCC(=O)N1CC=C(c2cc(NC(=O)C3CC3)nc3[nH]ccc23)C1 [Example 426, N-(4-(1-(2-cyanoacetyl)-2,5-dihydro-1H-pyrrol-3-yl)-1H-pyrrolo[2,3-b]pyridin-6-yl)cyclopropanecarboxamide] | > 200 nM |
| N#CCCC(=O)N1CC=C(c2cc(NC(=O)C3CC3)nc3[nH]ccc23)C1 [Example 427, N-(4-(1-(3-cyanopropanoyl)-2,5-dihydro-1H-pyrrol-3-yl)-1H-pyrrolo[2,3-b]pyridin-6-yl)cyclopropanecarboxamide] | > 200 nM |
| O=C(Nc1cc(C2=CCN(C(=O)CC(F)(F)F)C2)c2cc[nH]c2n1)C1CC1 [Example 428, N-(4-(1-(3,3,3-trifluoropropanoyl)-2,5-dihydro-1H-pyrrol-3-yl)-1H-pyrrolo[2,3-b]pyridin-6-yl)cyclopropanecarboxamide] | > 200 nM |
| O=C(Nc1cc(C2=CCN(C(=O)CCC(F)(F)F)C2)c2cc[nH]c2n1)C1CC1 [Example 429, N-(4-(1-(4,4,4-trifluorobutanoyl)-2,5-dihydro-1H-pyrrol-3-yl)-1H-pyrrolo[2,3-b]pyridin-6-yl)cyclopropanecarboxamide] | > 200 nM |
| N#CC1(C(=O)N2CC=C(c3cc(NC(=O)C4CC4)nc4[nH]ccc34)C2)CC1 [Example 430, N-(4-(1-(1-cyanocyclopropane-1-carbonyl)-2,5-dihydro-1H-pyrrol-3-yl)-1H-pyrrolo[2,3-b]pyridin-6-yl)cyclopropanecarboxamide] | > 200 nM |
| O=C(Nc1ccc(-c2nc(NC(=O)C3CC3)nc3[nH]ccc23)cc1)NC1CC1 [Example 437, N-(4-(4-(3-cyclopropylureido)phenyl)-7H-pyrrolo[2,3-d]pyrimidin-2-yl)cyclopropanecarboxamide] | > 200 nM |
| CCNC(=O)Nc1ccc(-c2nc(NC(=O)C3CC3)nc3[nH]ccc23)cc1 [Example 438, N-(4-(4-(3-ethylureido)phenyl)-7H-pyrrolo[2,3-d]pyrimidin-2-yl)cyclopropanecarboxamide] | > 200 nM |
| O=C(Nc1cc(C2=CCN(C(=O)N3CCOCC3)CC2)c2cc[nH]c2n1)C1CC1 [Example 446, N-(4-(1-(morpholine-4-carbonyl)-1,2,3,6-tetrahydropyridin-4-yl)-1H-pyrrolo[2,3-b]pyridin-6-yl)cyclopropanecarboxamide] | > 200 nM |
| N#CCNC(=O)N1CC=C(c2cc(NC(=O)C3CC3)nc3[nH]ccc23)CC1 [Example 447, N-(cyanomethyl)-4-(6-(cyclopropanecarboxamido)-1H-pyrrolo[2,3-b]pyridin-4-yl)-3,6-dihydropyridine-1 (2H)-carboxamide] | 20 to 200 nM |
| O=C(Nc1cc(C2=CC3CCC(C2)N3C(=O)NCC(F)(F)F)c2cc[nH]c2n1)C1CC1 (stereo not drawn) [Example 448, 3-(6-(cyclopropanecarboxamido)-1H-pyrrolo[2,3-b]pyridin-4-yl)-N-(2,2,2-trifluoroethyl)-8-azabicyclo[3.2.1]oct-2-ene-8-carboxamide] | < 20 nM |
| CCCCNC(=O)N1C2C=C(c3cc(NC(=O)C4CC4)nc4[nH]ccc34)CC1CC2 (stereo not drawn) [Example 449, N-butyl-3-(6-(cyclopropanecarboxamido)-1H-pyrrolo[2,3-b]pyridin-4-yl)-8-azabicyclo[3.2.1]oct-2-ene-8-carboxamide] | 20 to 200 nM |
| O=C(Nc1cc(C2=CCN(C(=O)NC(C3CC3)C(F)(F)F)CC2)c2cc[nH]c2n1)C1CC1 (stereo not drawn) [Example 450, 4-(6-(cyclopropanecarboxamido)-1H-pyrrolo[2,3-b]pyridin-4-yl)-N-(1-cyclopropyl-2,2,2-trifluoroethyl)-3,6-dihydropyridine-1 (2H)-carboxamide] | > 200 nM |
| O=C(Nc1cc(C2=CCN(C(=O)n3ccnc3)CC2)c2cc[nH]c2n1)C1CC1 [Example 451, N-(4-(1-(1H-imidazole-1-carbonyl)-1,2,3,6-tetrahydropyridin-4-yl)-1H-pyrrolo[2,3-b]pyridin-6-yl)cyclopropanecarboxamide] | 20 to 200 nM |
| CC(C)(C)OC(=O)N1CC=C(c2cc(NC(=O)C3CC3)nc3[nH]ccc23)CC1 [Example 454, tert-butyl 4-(6-(cyclopropanecarboxamido)-1H-pyrrolo[2,3-b]pyridin-4-yl)-3,6-dihydropyridine-1 (2H)-carboxylate] | 20 to 200 nM |
| CC1CN(C(=O)OC(C)(C)C)CC=C1c1cc(NC(=O)C2CC2)nc2[nH]ccc12 (stereo not drawn) [Example 456, tert-butyl 4-(6-(cyclopropanecarboxamido)-1H-pyrrolo[2,3-b]pyridin-4-yl)-3-methyl-3,6-dihydropyridine-1 (2H)-carboxylate] | > 200 nM |

Continued, values first:

| IC50 | SMILES |
| --- | --- |
| < 20 nM | O=C(Nc1cc(C2=CCN(C(=O)c3ccnc(F)c3)CCC2)c2cc[nH]c2n1)C1CC1 [Example 423, N-(4-(1-(2-fluoroisonicotinoyl)-2,5,6,7-tetrahydro-1H-azepin-4-yl)-1H-pyrrolo[2,3-b]pyridin-6-yl)cyclopropanecarboxamide] |
| < 20 nM | O=C(Nc1cc(C2=CCN(C(=O)c3ccnc(F)c3F)CCC2)c2cc[nH]c2n1)C1CC1 [Example 424, N-(4-(1-(2,3-difluoroisonicotinoyl)-2,5,6,7-tetrahydro-1H-azepin-4-yl)-1H-pyrrolo[2,3-b]pyridin-6-yl)cyclopropanecarboxamide] |
| 20 to 200 nM | N#CCC(=O)N1CC=C(c2nc(NC(=O)C3CC3)nc3[nH]ccc23)CC1 [Example 425, N-(4-(1-(2-cyanoacetyl)-1,2,3,6-tetrahydropyridin-4-yl)-7H-pyrrolo[2,3-d]pyrimidin-2-yl)cyclopropanecarboxamide] |
| 20 to 200 nM | CCNC(=O)Nc1ccc(-c2cc(NC(=O)C3CC3)nc3[nH]ccc23)cc1 [Example 431, N-(4-(4-(3-ethylureido)phenyl)-1H-pyrrolo[2,3-b]pyridin-6-yl)cyclopropanecarboxamide] |
| 20 to 200 nM | O=C(Nc1cc(-c2ccc(NC(=O)N3CCOCC3)cc2)c2cc[nH]c2n1)C1CC1 [Example 432, N-(4-(6-(cyclopropanecarboxamido)-1H-pyrrolo[2,3-b]pyridin-4-yl)phenyl)morpholine-4-carboxamide] |
| 20 to 200 nM | CCCCNC(=O)Nc1ccc(-c2cc(NC(=O)C3CC3)nc3[nH]ccc23)cc1 [Example 433, N-(4-(4-(3-butylureido)phenyl)-1H-pyrrolo[2,3-b]pyridin-6-yl)cyclopropanecarboxamide] |
| 20 to 200 nM | O=C(NCC(F)(F)F)Nc1ccc(-c2cc(NC(=O)C3CC3)nc3[nH]ccc23)cc1 [Example 435, N-(4-(4-(3-(2,2,2-trifluoroethyl)ureido)phenyl)-1H-pyrrolo[2,3-b]pyridin-6-yl)cyclopropanecarboxamide] |
| 20 to 200 nM | Cc1cc(NC(=O)NCC(F)(F)F)ccc1-c1cc(NC(=O)C2CC2)nc2[nH]ccc12 [Example 436, N-(4-(2-methyl-4-(3-(2,2,2-trifluoroethyl)ureido)phenyl)-1H-pyrrolo[2,3-b]pyridin-6-yl)cyclopropanecarboxamide] |
| 20 to 200 nM | CCCCNC(=O)Nc1ccc(-c2nc(NC(=O)C3CC3)nc3[nH]ccc23)cc1 [Example 439, N-(4-(4-(3-butylureido)phenyl)-7H-pyrrolo[2,3-d]pyrimidin-2-yl)cyclopropanecarboxamide] |
| 20 to 200 nM | O=C(Nc1ccc(-c2nc(NC(=O)C3CC3)nc3[nH]ccc23)cc1)Nc1ccc(F)c(F)c1 [Example 440, N-(4-(4-(3-(3,4-difluorophenyl)ureido)phenyl)-7H-pyrrolo[2,3-d]pyrimidin-2-yl)cyclopropanecarboxamide] |
| 20 to 200 nM | O=C(Nc1ccc(F)cc1)Nc1ccc(-c2nc(NC(=O)C3CC3)nc3[nH]ccc23)cc1 [Example 441, N-(4-(4-(3-(4-fluorophenyl)ureido)phenyl)-7H-pyrrolo[2,3-d]pyrimidin-2-yl)cyclopropanecarboxamide] |
| < 20 nM | O=C(NCC(F)(F)F)NC1CC=C(c2cc(NC(=O)C3CC3)nc3[nH]ccc23)CC1 (stereo not drawn) [Example 442, N-(4-(4-(3-(2,2,2-trifluoroethyl)ureido)cyclohex-1-en-1-yl)-1H-pyrrolo[2,3-b]pyridin-6-yl)cyclopropanecarboxamide] |
| < 20 nM | O=C(Nc1cc(C2=CCN(C(=O)NCC(F)(F)F)CC2)c2cc[nH]c2n1)C1CC1 [Example 443, 4-(6-(cyclopropanecarboxamido)-1H-pyrrolo[2,3-b]pyridin-4-yl)-N-(2,2,2-trifluoroethyl)-3,6-dihydropyridine-1 (2H)-carboxamide] |
| 20 to 200 nM | CCCCNC(=O)N1CC=C(c2cc(NC(=O)C3CC3)nc3[nH]ccc23)CC1 [Example 444, N-butyl-4-(6-(cyclopropanecarboxamido)-1H-pyrrolo[2,3-b]pyridin-4-yl)-3,6-dihydropyridine-1 (2H)-carboxamide] |
| 20 to 200 nM | O=C(Nc1cc(C2=CCN(C(=O)N3CCS(=O)(=O)CC3)CC2)c2cc[nH]c2n1)C1CC1 [Example 445, N-(4-(1-(1,1-dioxidothiomorpholine-4-carbonyl)-1,2,3,6-tetrahydropyridin-4-yl)-1H-pyrrolo[2,3-b]pyridin-6-yl)cyclopropanecarboxamide] |
| < 20 nM | CC1CN(C(=O)n2ccnc2)CC=C1c1cc(NC(=O)C2CC2)nc2[nH]ccc12 (stereo not drawn) [Example 452, N-(4-(1-(1H-imidazole-1-carbonyl)-3-methyl-1,2,3,6-tetrahydropyridin-4-yl)-1H-pyrrolo[2,3-b]pyridin-6-yl)cyclopropanecarboxamide] |
| < 20 nM | CC1CN(C(=O)NCC(F)(F)F)CC=C1c1cc(NC(=O)C2CC2)nc2[nH]ccc12 (stereo not drawn) [Example 453, 4-(6-(cyclopropanecarboxamido)-1H-pyrrolo[2,3-b]pyridin-4-yl)-3-methyl-N-(2,2,2-trifluoroethyl)-3,6-dihydropyridine-1 (2H)-carboxamide] |
| < 20 nM | N#CCOC(=O)N1CC=C(c2cc(NC(=O)C3CC3)nc3[nH]ccc23)CC1 [Example 455, cyanomethyl 4-(6-(cyclopropanecarboxamido)-1H-pyrrolo[2,3-b]pyridin-4-yl)-3,6-dihydropyridine-1 (2H)-carboxylate] |
